Measurements: paper PMC10817512, “OSMAC-Based Discovery and Biosynthetic Gene Clusters Analysis of Secondary Metabolites from Marine-Derived Streptomyces globisporus SCSIO LCY30” (Marine Drugs, 2023)
≈ marks a conversion by molar mass, not a printed value. Like-named read-outs stand apart in the source and are kept apart here.

What was measured:
[1] = test system: cervical cancer cell line Hela; experiment: Cell growth inhibitory (cytotoxic) activity assay; format: cell-based, human
Description: (§1) The cell growth inhibitory activities of compounds 1–3 against fourteen different human cell lines (human liver cell line LX-2; hepatocellular cancer line HEPG2; human intestinal epithelial cell line NCM460; colorectal cancer cell lines HCT116 and SW480; normal human breast cell line MCF-10A; breast cancer cell line MCF7; triple-negative breast cancer cell lines MDA-MB-231, MDA-MB-468, and Bt-549; human umbilical vein endothelial cell line; lung cancer cell line A549; cervical cancer cell line Hela; and cholangiocarcinoma cell line RBE) were tested according to the previously published methods. SPSS software version 22.0 was used to test the IC50 values. Cisplatin and adriamycin were used as positive control agents, and all the experiments were carried out in triplicate.

[2] = test system: cholangiocarcinoma cell line RBE; experiment: Cell growth inhibitory (cytotoxic) activity assay; format: cell-based, human
Description: as §1

[3] = test system: colorectal cancer cell line HCT116; experiment: Cell growth inhibitory (cytotoxic) activity assay; format: cell-based, human
Description: as §1

[4] = test system: colorectal cancer cell line SW480; experiment: Cell growth inhibitory (cytotoxic) activity assay; format: cell-based, human; settings: SW480 (colorectal cancer)
Description: as §1

[5] = test system: hepatocellular cancer line HEPG2; experiment: Cell growth inhibitory (cytotoxic) activity assay; format: cell-based, human
Description: as §1

[6] = test system: lung cancer cell line A549; experiment: Cell growth inhibitory (cytotoxic) activity assay; format: cell-based, human; settings: Homo sapiens
Description: as §1

[7] = test system: triple-negative breast cancer cell line Bt-549; experiment: Cell growth inhibitory (cytotoxic) activity assay; format: cell-based, human; settings: Bt-549 (TNBC)
Description: as §1

[8] = test system: triple-negative breast cancer cell line MDA-MB-231; experiment: Cell growth inhibitory (cytotoxic) activity assay; format: cell-based, human; settings: MDA-MB-231 (TNBC)
Description: as §1

[9] = test system: triple-negative breast cancer cell line MDA-MB-468; experiment: Cell growth inhibitory (cytotoxic) activity assay; format: cell-based, human; settings: MDA-MB-468 (TNBC)
Description: as §1

[10] = test system: human intestinal epithelial cell line NCM460; experiment: Cell growth inhibitory (cytotoxic) activity assay; format: cell-based; settings: NCM460 (normal intestinal epithelial cell line)
Description: as §1

[11] = test system: human liver cell line LX-2; experiment: Cell growth inhibitory (cytotoxic) activity assay; format: cell-based; settings: LX-2 (human liver cell line)
Description: as §1

[12] = test system: human umbilical vein endothelial cell line HUVEC; experiment: Cell growth inhibitory (cytotoxic) activity assay; format: cell-based
Description: as §1

[13] = test system: normal human breast cell line MCF-10A; experiment: Cell growth inhibitory (cytotoxic) activity assay; format: cell-based; settings: MCF-10A (normal human breast cell line)
Description: as §1

[14] = test system: Staphylococcus simulans AKA1; experiment: Antibacterial MIC, CLSI microdilution; format: cell-based; settings: Staphylococcus simulans, AKA1
Bacillus subtilis BS01 = experiment: Antibacterial MIC, CLSI microdilution; format: cell-based; settings: Bacillus subtilis, BS01
Protocol: (§2) An antibacterial activity test of compounds 1–3 was conducted according to a standard protocol provided by the Clinical and Laboratory Standards Institute (CLSI). Sixteen bacterial strains were used, including Staphylococcus aureus ATCC 29213, Staphylococcus aureus 16339, Staphylococcus aureus 1862, Staphylococcus aureus 3090, Staphylococcus aureus 991, Staphylococcus aureus 669, Staphylococcus aureus 745324, Staphylococcus aureus 16162, Staphylococcus aureus (cfr) GDE4P037P, Enterococcus faecalis ATCC 29212, Enterococcus faecalis 36950, Micrococcus luteus ML01, MRSA, Bacillus subtilis BS01, Enterococcus gallinarum 5F52C, and Enterococcus faecium 36711. Compounds 1–3 were dissolved in DMSO at a concentration of 3.2 mg/mL, and vancomycin and ampicilin were used as antibacterial control agents. […] All the assays were carried out in triplicate.

[15] = test system: Enterococcus faecalis 36950; experiment: Antibacterial MIC, CLSI microdilution; format: cell-based; settings: Enterococcus faecalis, 36950
Protocol: as §2

[16] = test system: Enterococcus faecalis ATCC 29212; experiment: Antibacterial MIC, CLSI microdilution; format: cell-based; settings: Enterococcus faecalis, ATCC29212
Protocol: as §2

[17] = test system: Enterococcus faecium 36711; experiment: Antibacterial MIC, CLSI microdilution; format: cell-based; settings: Enterococcus faecium, 36711
Protocol: as §2

[18] = test system: Enterococcus gallinarum 5F52C; experiment: Antibacterial MIC, CLSI microdilution; format: cell-based; settings: Enterococcus gallinarum, GALLINARUM
Protocol: as §2

Micrococcus luteus ML01 = experiment: Antibacterial MIC, CLSI microdilution; format: cell-based; settings: Micrococcus luteus, ML01
Protocol: as §2

[19] = test system: Staphylococcus aureus (cfr) GDE4P037P; experiment: Antibacterial MIC, CLSI microdilution; format: cell-based; settings: Staphylococcus aureus
Protocol: as §2

[20] = test system: Staphylococcus aureus 16162; experiment: Antibacterial MIC, CLSI microdilution; format: cell-based; settings: Staphylococcus aureus, 16162
Protocol: as §2

[21] = test system: Staphylococcus aureus 16339; experiment: Antibacterial MIC, CLSI microdilution; format: cell-based; settings: Staphylococcus aureus, 16339
Protocol: as §2

[22] = test system: Staphylococcus aureus 1862; experiment: Antibacterial MIC, CLSI microdilution; format: cell-based; settings: Staphylococcus aureus, 1862
Protocol: as §2

[23] = test system: Staphylococcus aureus 3090; experiment: Antibacterial MIC, CLSI microdilution; format: cell-based; settings: Staphylococcus aureus, 3090
Protocol: as §2

[24] = test system: Staphylococcus aureus 669; experiment: Antibacterial MIC, CLSI microdilution; format: cell-based; settings: Staphylococcus aureus, 669
Protocol: as §2

[25] = test system: Staphylococcus aureus 745324; experiment: Antibacterial MIC, CLSI microdilution; format: cell-based; settings: Staphylococcus aureus, 745324
Protocol: as §2

[26] = test system: Staphylococcus aureus 991; experiment: Antibacterial MIC, CLSI microdilution; format: cell-based; settings: Staphylococcus aureus, 991
Protocol: as §2

[27] = test system: Staphylococcus aureus ATCC 29213; experiment: Antibacterial MIC, CLSI microdilution; format: cell-based; settings: Staphylococcus aureus, ATCC29213
Protocol: as §2

MRSA = experiment: Antibacterial MIC, CLSI microdilution; format: cell-based, Staphylococcus aureus; settings: Staphylococcus aureus
Protocol: as §2

[28] = test system: breast cancer cell line MCF7; experiment: Cell growth inhibitory (cytotoxic) activity assay; format: cell-based, human
Description: SPSS software version 22.0 was used to test the IC50 values.

Compound: COc1cccc2c1C(=O)c1c(O)c3c(c(O)c1C2=O)C[C@@](O)(C(=O)CO)C[C@@H]3O[C@H]1C[C@H](N)[C@H](O)[C@H](C)O1 [Adriamycin, reference compound]
- IC50 ([1]; Homo sapiens): 7.02 µM
- IC50 ([2]; Homo sapiens): 4.26 µM
- IC50 ([3]; Homo sapiens, HCT-116): 1.54 µM
- IC50 ([4]; Homo sapiens): 17.5 µM
- IC50 ([5]; Homo sapiens): 15.5 µM
- IC50 [6]: 1.51 µM
- IC50 ([7]; Homo sapiens): 3.75 µM
- IC50 ([8]; Homo sapiens): 4.04 µM
- IC50 ([9]; Homo sapiens): 3.16 µM
- IC50 ([10]; Homo sapiens): 3.89 µM
- IC50 [11]: 1.36 µM
- IC50 [12]: 12 µM
- IC50 [13]: 3.72 µM

Compound: CN[C@H](CC(C)C)C(=O)N[C@H]1C(=O)N[C@@H](CC(N)=O)C(=O)N[C@H]2C(=O)N[C@H]3C(=O)N[C@H](C(=O)N[C@H](C(=O)O)c4cc(O)cc(O)c4-c4cc3ccc4O)[C@H](O)c3ccc(c(Cl)c3)Oc3cc2cc(c3O[C@@H]2O[C@H](CO)[C@@H](O)[C@H](O)[C@H]2O[C@H]2C[C@](C)(N)[C@H](O)[C@H](C)O2)Oc2ccc(cc2Cl)[C@H]1O [Vancomycin, reference compound]
- MIC [14]: 0.5 µg/mL (≈ 0.345 µM)
- MIC (Bacillus subtilis BS01): 0.13 µg/mL (≈ 0.0897 µM)
- MIC [15]: 0.5 µg/mL (≈ 0.345 µM)
- MIC [16]: 2 µg/mL (≈ 1.38 µM)
- MIC [17]: > 64 µg/mL
- MIC [18]: 4 µg/mL (≈ 2.76 µM)
- MIC (Micrococcus luteus ML01): 0.13 µg/mL (≈ 0.0897 µM)
- MIC [19]: 1 µg/mL (≈ 0.69 µM)
- MIC [20]: 0.5 µg/mL (≈ 0.345 µM)
- MIC [21]: 1 µg/mL (≈ 0.69 µM)
- MIC [22]: 1 µg/mL (≈ 0.69 µM)
- MIC [23]: 0.5 µg/mL (≈ 0.345 µM)
- MIC [24]: 1 µg/mL (≈ 0.69 µM)
- MIC [25]: 1 µg/mL (≈ 0.69 µM)
- MIC [26]: 0.5 µg/mL (≈ 0.345 µM)
- MIC [27]: 1 µg/mL (≈ 0.69 µM)
- MIC (MRSA): 0.5 µg/mL (≈ 0.345 µM)

Compound: N.N.[Cl][Pt][Cl] [Cisplatin, reference compound]
- IC50 [1]: 7.62 µM
- IC50 [2]: 13.5 µM
- IC50 [3]: 4.83 µM
- IC50 [4]: 1.82 µM
- IC50 [5]: 11 µM
- IC50 [7]: 7.54 µM
- IC50 [8]: 15.7 µM
- IC50 [9]: 8.35 µM
- IC50 [28]: 4.56 µM
- IC50 [10]: 3.17 µM
- IC50 [11]: 12.1 µM
- IC50 [12]: 7.7 µM
- IC50 [13]: 6.43 µM
